Laboratory results published in patent publication US11236106B2, “Cycloalkane-1,3-diamine derivative” (Daiichi Sankyo Company, Limited, priority 2018, dated 2022).
Where a name gives a salt, the structure may show the parent alone. Read-outs that look alike come from different tables or passages of the source.

Target: T1, menin and MLL (menin, Flag tagged; biotinylated MLL1 peptide 1-46aa) (Homo sapiens, UniProt O00255)
T1 sequence (O00255 1-610): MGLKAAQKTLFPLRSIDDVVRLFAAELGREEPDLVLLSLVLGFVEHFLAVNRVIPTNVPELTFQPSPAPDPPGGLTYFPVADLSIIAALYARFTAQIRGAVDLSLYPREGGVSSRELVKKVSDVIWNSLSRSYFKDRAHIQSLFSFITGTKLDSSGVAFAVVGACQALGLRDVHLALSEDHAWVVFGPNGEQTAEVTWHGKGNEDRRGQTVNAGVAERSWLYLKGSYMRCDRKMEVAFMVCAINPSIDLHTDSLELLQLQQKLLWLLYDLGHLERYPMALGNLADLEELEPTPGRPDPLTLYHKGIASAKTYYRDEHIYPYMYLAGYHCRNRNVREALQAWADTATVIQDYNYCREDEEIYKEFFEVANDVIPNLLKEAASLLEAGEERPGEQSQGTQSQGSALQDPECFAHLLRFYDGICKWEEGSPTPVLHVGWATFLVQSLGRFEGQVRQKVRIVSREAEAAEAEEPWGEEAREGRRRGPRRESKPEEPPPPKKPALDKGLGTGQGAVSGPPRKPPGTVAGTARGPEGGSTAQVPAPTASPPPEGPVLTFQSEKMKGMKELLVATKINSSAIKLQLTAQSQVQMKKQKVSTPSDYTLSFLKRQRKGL
Assay: biochemical

[1] = cell free IC50 (nM), 1 nM menin, 10 nM biotinylated MLL1 peptide, AlphaLISA

Protocol: Then, the fluorescence signal by AlphaLISA (registered trademark, PerkinElmer Co., Ltd.) was measured using a plate reader (PerkinElmer Co., Ltd., EnVisionXcite).

`COCc1cc2c(N(C)[C@@H]3CC[C@H](NCc4ccc(-c5cncc(OC)c5)cc4)C3)ncnc2s1` [Example 47, (1R,3S)-N^1-[6-(methoxymethyl)thieno[2,3-d]pyrimidin-4-yl]-N^3-{[4-(5-methoxypyridin-3-yl)phenyl]methyl}-N^1-methylcyclopentane-1,3-diamine hydrochloride] was tested, and the IC50 [1] was 97.2 nM.

For `COc1cncc(-c2ccc(CN[C@H]3CC[C@@H](N(C)c4ncnc5sc(C6COC6)cc45)C3)cc2)c1` [Example 48, (1R,3S)-N^3-{[4-(5-methoxypyridin-3-yl)phenyl]methyl}-N^1-methyl-N^1-[6-(oxetan-3-yl)thieno[2,3-d]pyrixnidin-4-yl]cyclopentane-1,3-diamine hydrochloride], the IC50 [1] was 1420 nM.

`CN(c1ncnc2sc(CC(F)(F)F)cc12)[C@@H]1CC[C@H](NCc2ccc(C(=O)NCc3cnn(C)c3)cc2)C1` [Example 49, N-[(1-methyl-1H-pyrazol-4-yl)methyl]-4-({[(1S,3R)-3-{methyl[6-(2,2,2-trifluoroethyl)thieno[2,3-d]pyrimidin-4-yl]amino}cyclopentyl]amino}methyl)benzamide hydrochloride] showed an IC50 [1] of 24 nM.

`COc1cncc(-c2ccc(CN[C@@H]3C[C@H](N(C)c4ncnc5sc(CC(F)(F)F)cc45)C[C@H]3O)cc2)c1` [Example 50, (1R,2R,4S)-2-({[4-(5-methoxypyridin-3-yl)phenyl]methyl}amino)-4-{methyl[6-(2,2,2-trifluoroethyl)thieno[2,3-d]pyrimidin-4-yl]amino}cyclopentan-1-ol hydrochloride] gave an IC50 of 9.7 nM.

With `COc1cncc(-c2ccc(CN[C@@H]3C[C@H](N(C)c4ncnc5sc(CC(F)(F)F)cc45)C[C@@H]3O)cc2)c1` [Example 51, (1S,2R,4S)-2-({[4(5methoxypyridin-3-yl)phenyl]methyl}amino)-4-{methyl[6-(2,2,2-trilluoroethyl)thieno[2,3-d]pyrimidin-4-yl]amino}cyclopentan-1-ol hydrochloride] the IC50 [1] was 10.1 nM.

`COc1cncc(-c2ccc(CN[C@@H]3C[C@H](Nc4ncnc5sc(CC(F)(F)F)cc45)CC(F)(F)C3)cc2)c1` [Example 52, (1R,3S)-5,5-difluoro-N^1-{[4-(5-methoxypyridin-3-yl)phenyl]methyl}-N^3-[6-(2,2,2-trifluoroethyl)thieno[2,3-d]pyrimidin-4-yl]cyclohexane-l,3-diamine hydrochloride] showed an IC50 [1] of 612 nM.

Work on `CN(c1ncnc2sc(CC(F)(F)F)cc12)[C@@H]1CC[C@H](NCc2ccc(S(=O)(=O)c3ccccc3)cc2)C1` [Example 53, (1R,3S)N^3-{[4-(benzenesulfonyl)phenyl]methyl}N^1-methyl-N^1-[6-(2,2,2-trifluoroethyl)thieno[2,3-d]pyrimidin-4-yl]cyclopentane-1,3-diamine hydrochloride] yielded an IC50 [1] of 17.7 nM.

Compound `CNc1nc(N(C)[C@H]2C[C@@H](NCc3ccc(Nc4cccnc4)cc3)C[C@@H]2O)c2cc(CC(F)(F)F)sc2n1` [Example 54, (1S,2S,4R)-2-{methyl[2-(methylamino)-6-(2,2,2-trifluoroethyl)thieno[2,3-d]pyrimidin-4-yl]amino}-4-[({4-[(pyridin-3-yl)amino]phenyl}methyl)amino]cyclopentan-1-ol hydrochloride] has an IC50 [1] of 1 nM.

Work on `C=CC(=O)Nc1cccc(Nc2ccc(CN[C@H]3CC[C@@H](N(C)c4nc(NC)nc5sc(CC(F)(F)F)cc45)C3)cc2)c1` [Example 55, N-{3-[4-({[(1S,3R)-3{methyl[2-(methylamino)-6-(2,2,2-trifluoroethyl)thieno[2,3-d]pyrimidin-4-yl]amino}cyclopentyl]amino}methyl)anilino]phenyl}prop-2-enamide hydrochloride] yielded an IC50 [1] of 9.8 nM.

`CN(c1ncnc2sc(CC(F)(F)F)cc12)[C@@H]1CC[C@H](NCc2ccc(N3CCc4ccccc43)cc2)C1` [Example 56, (1R,3S)-N^3-{[4-(2)-3-dihydro-1H-indol-1-yl)phenyl]methyl}-N^1-methyl-N^1-[6-(2,2,2-trifluoroethyl)thieno[2,3-d]pyrimidin-4-yl]cyclopentane-1,3-diamine hydrochloride] gave an IC50 [1] of 43.6 nM.
